How the values were obtained:
[1] = Cellular activity (data not shown); assay type: cell-based
E. coli SSB = test system: T1, E. coli SSB; test: E. coli SSB binding assay (EMSA); details: for effect on EcSSB binding to ssDNA (result in words): EMSA, preincubation with SMI
T1 construct: purchased Enzymatics, Beverly, MA
Method: E. coli SSB Binding Assay These EMSAs were performed similarly to those for the RPA constructs, with the following exceptions. Reactions contained 25 nM of 5′-[^32P]-labeled 3Pc3 ssDNA and 3.3 nM (assuming homotetramer formation) SSB protein (Enzymatics, Beverly, MA). Reactions (20 μL) were carried out in 20 mM HEPES, pH 7.5, 1 mM DTT, 0.01% NP-40, 100 mM NaCl and resolved by 6% native polyacrylamide gel electrophoresis at 25 mA for 2 hours. Gels were dried and quantified via phosphorimager analysis as described above.

[2] = molecular target: T2, full-length heterotrimeric RPA (Homo sapiens, UniProt P27694); parameters: method as in earlier work; details: prior observation; cited from earlier work
T2 construct: Human full-length, untagged heterotrimeric RPA (RPA) was purified as previously described; made in house
T2 sequence (P27694 whole entry): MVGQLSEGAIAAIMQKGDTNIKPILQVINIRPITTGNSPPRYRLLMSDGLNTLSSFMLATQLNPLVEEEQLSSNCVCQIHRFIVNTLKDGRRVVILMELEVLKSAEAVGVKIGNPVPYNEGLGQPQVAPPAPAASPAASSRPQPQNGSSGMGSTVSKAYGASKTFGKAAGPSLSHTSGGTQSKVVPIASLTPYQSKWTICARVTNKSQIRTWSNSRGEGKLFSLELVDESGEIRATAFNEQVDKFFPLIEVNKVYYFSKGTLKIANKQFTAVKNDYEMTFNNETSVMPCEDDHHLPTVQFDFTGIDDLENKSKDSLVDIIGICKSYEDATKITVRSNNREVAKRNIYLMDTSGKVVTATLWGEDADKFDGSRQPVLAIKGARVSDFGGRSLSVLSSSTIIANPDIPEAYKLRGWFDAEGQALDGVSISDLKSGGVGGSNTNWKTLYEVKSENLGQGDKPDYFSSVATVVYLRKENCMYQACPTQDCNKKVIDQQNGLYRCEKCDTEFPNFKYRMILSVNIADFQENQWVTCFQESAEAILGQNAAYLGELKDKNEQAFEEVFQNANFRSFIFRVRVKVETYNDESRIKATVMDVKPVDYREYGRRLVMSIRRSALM
T2 sequence (P15927 whole entry partner): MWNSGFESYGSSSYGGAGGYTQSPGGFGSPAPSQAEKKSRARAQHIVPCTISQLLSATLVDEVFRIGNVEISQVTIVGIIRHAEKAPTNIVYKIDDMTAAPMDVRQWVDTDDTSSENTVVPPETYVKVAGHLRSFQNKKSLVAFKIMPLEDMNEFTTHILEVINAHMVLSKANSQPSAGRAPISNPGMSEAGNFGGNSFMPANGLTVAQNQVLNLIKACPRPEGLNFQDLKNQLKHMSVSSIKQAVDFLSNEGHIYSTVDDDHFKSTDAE
T2 sequence (P35244 whole entry partner): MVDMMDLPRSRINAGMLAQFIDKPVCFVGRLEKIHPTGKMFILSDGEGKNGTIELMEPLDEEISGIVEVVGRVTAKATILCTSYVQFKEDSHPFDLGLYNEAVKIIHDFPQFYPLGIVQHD

RPA DBD-A/B [3] = molecular target: T3, RPA DBD-A/B (Homo sapiens, UniProt P27694); test: Reversibility of inhibition: dialysis, then fluorescence polarization of DBD-A/B binding to F-dT12; details: preincubation 30 minutes, dialysis overnight, FP with F-dT12
T3 construct: we subcloned amino acids 181–432 of human RPA p70; inferred from pET15b vector and nickel-NTA purification) (N); made in house; host or cells: E. coli BL21(DE3)
T3 sequence (P27694 181-432): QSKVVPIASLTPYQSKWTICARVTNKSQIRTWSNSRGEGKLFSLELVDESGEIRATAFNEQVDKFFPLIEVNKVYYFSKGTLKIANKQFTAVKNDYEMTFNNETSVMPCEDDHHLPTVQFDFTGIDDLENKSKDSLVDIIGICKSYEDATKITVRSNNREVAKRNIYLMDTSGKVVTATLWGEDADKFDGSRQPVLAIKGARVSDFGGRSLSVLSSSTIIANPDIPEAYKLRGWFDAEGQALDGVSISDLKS
Method: Fluorescence polarization experiments were preformed as previously described in [23]. SMIs were diluted in H1 buffer (10 mM HEPES, pH 7.2, 1 mM DTT, 0.01% NP-40, and 100 mM NaCl), and the final DMSO concentration was kept below 1%.
(§1) To assess the reversibility of select SMIs, the indicated SMI was preincubated with RPA or the DBD-A/B construct for 30 minutes at room temperature. The resulting solution was dialyzed versus 500 mL H1 buffer at 4°C using 0.5 ml, 12,000 molecular weight cut-off dialysis cassettes (Pierce). The resulting protein was recovered and concentration determined by Bradford analysis. Analysis of DNA binding activity was performed either by EMSA or FP. In each series of experiments, there was no loss of DNA binding activity in vehicle control-treated protein.
Figure 3 Irreversible inhibition of RPA DBD-A/B-DNA-binding activity by CheSS19. (a) EMSA analysis of CheSS19 inhibition of RPA DBD-A/B. Assays were performed as described in the legend to Figure 2. […] (c) Quantification of the binding data presented in panels (a) and (b). (d) Fluorescence polarization analysis of CheSS19 inactivated RPA DBD-A/B. RPA DBD-A/B was preincubated with vehicle (1% DMSO) or CheSS19 (1 pmol in 1% DMSO) for 30 minutes at 37°C. […] The protein was recovered, and DNA-binding activity measured by FP analysis of binding to an F-dT12 substrate was performed as described in “Section 2”. […]

RPA DBD-A/B [4] = molecular target: T3, RPA DBD-A/B; test: EMSA of RPA DBD-A/B binding to ssDNA; details: for inhibition of DBD-A/B DNA binding (result in words): 25–200 μM inhibitor
Method: DBD-A/B The sequence encoding the RPA p70 DNA-binding domains A and B was subcloned from the hrRPA plasmid (provided by Dr. Marc Wold, University of Iowa) into the pET15b (Novagen) vector, and the protein was expressed in BL21(DE3) cells (Stratagene) as previously described in [9]. Briefly, cells were grown to an OD600 of 0.8, induced with 0.5 mM isopropyl-1-thio-β-D-galactopyranoside (IPTG) at 37°C for 2-3 hours. Small-scale DBD-A/B preparations were obtained from 1 L cultures, and, following induction, cells were harvested by centrifugation at 700 × g for 30 minutes at 4°C. The pellets were suspended in Buffer A (20 mM Tris, pH 7.5, 10% glycerol, 500 mM NaCl, 10 mM β-mercaptoethanol (BME), and 1 μg/mL phenylmethanesulfonyl fluoride (PMSF), leupeptin, and pepstatin) at 1 mL/gram of cells. The cells were lysed by sonication and insoluble material sedimented at 15,000 × g for 30 minutes at 4°C. The supernatant was then loaded onto a 10 mL phosphocellulose column, equilibrated with Buffer A, and the flow-through material collected. Imidazole was added to the flow-through to a final concentration of 5 mM, which was then loaded onto a 2 mL nickel-NTA-agarose column. The column was then washed with Buffer A containing 50 mM imidazole after which protein was eluted from the column using a gradient from 50–500 mM imidazole. Fractions were analyzed for protein content using Bradford and SDS-PAGE analysis in addition to assessment of DNA binding activity as determined by anisotropy. Fractions containing the DBD-A/B protein were pooled and dialyzed overnight in Buffer B (1 mM HEPES, pH 7.2, 10 mM dithiothreitol (DTT), 50 mM NaCl, and 1 μg/mL PMSF, pepstatin, and leupeptin) and aliquots stored at −80°C.
(§2) RPA and DBD-A/B Binding EMSAs were performed as previously described in [16] using a purine rich ssDNA substrate (3Pc3). Briefly, reactions contained 12.5 nM 5′-[^32P]-labeled 3Pc3 ssDNA and the indicated concentrations of RPA or DBD-A/B. Protein was preincubated with the indicated concentration of SMI for 30 minutes at 37°C. DNA was then added and reactions incubated for additional 5 minutes at room temperature in a final reaction volume of 40 μL. Reactions were then resolved on a 6% native polyacrylamide gel and electrophoresed at 170 volts for 1 hour. Gels were dried and quantified via phosphorimager analysis and ImageQuant software (Molecular Dynamics).

[5] = molecular target: T2, full-length heterotrimeric RPA; test: EMSA of full-length heterotrimeric RPA binding to ssDNA; details: 3Pc3 ssDNA, three independent experiments, read-out: IC50 for inhibition of full-length heterotrimeric RPA
Method: RPA Human full-length, untagged heterotrimeric RPA (RPA) was purified as previously described in [17].
as §2

[6] = molecular target: T2, full-length heterotrimeric RPA; test: Reversibility of inhibition: dialysis, then EMSA of full-length RPA; assay type: binding; details: dialysis overnight, EMSA with 34-base DNA
Method: as §2
as §1, with “In each series of experiments, there was no loss of DNA binding activity in vehicle control-treated protein.” left out
Figure 5 Irreversible inactivation of full-length heterotrimeric RPA by MCI13E. […] DNA binding activity of the resulting protein was assessed by EMSA using a 5′-[^32P]-ss 34-base DNA as described in “Section 2.” Lanes 1–4 predialysis, lanes 5 and 6 postdialysis.

[7] = test system: human lung cancer cell model; details: cited from earlier work
[8] = molecular target: T2, full-length heterotrimeric RPA; details: highest concentration tested (100 μM); cited from earlier work
[9] = molecular target: T4, Schizosaccharomyces pombe Pot1(DBD) (Schizosaccharomyces pombe, UniProt O13988); test: Schizosaccharomyces pombe Pot1(DBD) binding assay (EMSA); details: 15-mer ssDNA, three independent experiments, read-out: IC50 for inhibition of SpPot1(DBD) ssDNA binding
T4 construct: gift of Dr. Deborah Wuttke, University of Colorado, Boulder
T4 sequence (O13988 1-389): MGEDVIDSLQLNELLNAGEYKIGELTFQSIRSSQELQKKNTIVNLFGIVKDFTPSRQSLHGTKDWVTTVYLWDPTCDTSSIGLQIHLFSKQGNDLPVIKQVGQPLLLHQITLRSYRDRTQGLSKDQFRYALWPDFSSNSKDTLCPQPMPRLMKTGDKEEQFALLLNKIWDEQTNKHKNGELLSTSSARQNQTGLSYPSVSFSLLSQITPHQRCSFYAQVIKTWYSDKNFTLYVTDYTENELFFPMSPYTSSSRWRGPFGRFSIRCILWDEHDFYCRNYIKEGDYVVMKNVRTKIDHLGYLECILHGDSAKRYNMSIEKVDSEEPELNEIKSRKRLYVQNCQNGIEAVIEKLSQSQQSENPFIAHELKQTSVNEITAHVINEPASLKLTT
Method: Schizosaccharomyces pombe Pot1(DBD) Binding Assay EMSAs were performed as described above for EcSSB. Reactions contained 25 nM of 5′-[^32P]-labeled 15-mer ssDNA and 20 nM Pot1(DBD) protein (generously provided by Dr. Deborah Wuttke, University of Colorado, Boulder). Reactions (20 μL) were carried out in 20 mM HEPES, pH 7.5, 1 mM DTT, 0.01% NP-40, 100 mM NaCl, at room temperature, and resolved by 6% native polyacrylamide gel electrophoresis at 25 mA for 2 hours. Gels were dried and quantified via phosphorimager analysis as described above.

RPA DBD-A/B [10] = molecular target: RPA DBD-A/B (human, UniProt P27694 181-432); test: EMSA; ~50% of DNA bound at 125 nM protein; data not shown; DNA 12.5 nM; RPA/DBD-A/B EMSA: 12.5 nM DNA, protein preincubated with inhibitor 30 min at 37 C, then DNA 5 min at room temp; FP: 20 nM DNA, inhibitor diluted in H1 buffer (1)
RPA DBD-A/B (human, UniProt P27694 181-432), sequence (P27694 181-432): as the sequence (P27694 181-432) above

Molecule: O=C1OC(=O)[C@H]2C3C=CC(CC3)[C@@H]12 [CheSS19]
- cellular activity [1]: does not display any cellular activity
- effect on EcSSB binding to ssDNA (result in words) (E. coli SSB): unaffected
- mode of inhibition of full-length RPA [2]: irreversibly inhibited
- mode of inhibition of DBD-A/B after dialysis (RPA DBD-A/B [3]): irreversible

Molecule: CC1(C)C2CCC1(C)C(OC(=O)CBr)C2 (stereo not drawn) [MCI13E]
- inhibition of DBD-A/B DNA binding (result in words) (RPA DBD-A/B [4]; EMSA): lack of inhibition
- effect on EcSSB binding to ssDNA (result in words) (E. coli SSB): unaffected
- IC50 [5]: 16.1 µM
- mode of inhibition of full-length RPA after dialysis [6]: inhibition was not reversed by dialysis

Molecule: CC1(C)C2CCC1(C)C(OC(=O)CI)C2 (stereo not drawn) [MCI13F]
- inhibition of DBD-A/B DNA binding (result in words) (RPA DBD-A/B [4]; EMSA): lack of inhibition
- effect on EcSSB binding to ssDNA (result in words) (E. coli SSB): unaffected
- IC50 [5]: 10.1 µM

Molecule: CCOc1ccc2cc(C3CC(c4ccc(Br)cc4)=NN3C(=O)CCC(=O)O)c(Cl)nc2c1 (stereo not drawn) [TDRL-505]
- IC50 (RPA DBD-A/B [4]; EMSA, 125 nM DBD-A/B, 12.5 nM DNA, TDRL-505 10–100 μM, read-out: half-maximal inhibition of DBD-A/B DNA binding activity): ~40 µM
- half-maximal inhibition of DBD-A/B relative to intact heterotrimer (RPA DBD-A/B [4]; compared with heterotrimer value of ref 12): about twice
- inhibition at 100 µM (RPA DBD-A/B [4]; highest concentration tested (100 μM), read-out: inhibition of RPA DBD-A/B DNA binding): ~90%
- synergy with etoposide [7]: synergize
- synergy with cisplatin ([7]; human lung cancer cell model): synergize
- decrease in EcSSB binding to ssDNA (E. coli SSB; 100 μM, highest concentration tested): ~ 20%
- effect on EcSSB binding to ssDNA (result in words) (E. coli SSB): ineffective
- inhibition of RPA DNA binding [8]: ~90%
- IC50 [9]: 15.7 ± 1.6 µM

B1: 34-mer (ssDNA)
DNA: CTAGAAAGGGGGAAGAAAGGGAAGAGGCCAGAGA
- apparent K (half saturation) (RPA DBD-A/B [10]): ~125 nM
